Test results taken from patent US11592453B2, “Personalized metabolomic profiling of specialized pro-resolving mediators” (THE BRIGHAM AND WOMEN'S HOSPITAL, INC., priority 2016, dated 2023).
Where two headings read alike, the source gives them in different places. Positions of bridges follow the written chain, without caps; N, C: chain ends. Non-standard residues stand in square brackets, D forms with d. Residues, ends and D or L forms follow the SMILES beside them. hArg = N=C(N)NCCCC[C@H](N)C(=O)O; Mpa = O=C(O)CCS

Assays:
human blood clot = experiment: Clot volume after 24 hours of coagulation; assay type: cell-based; details: eptifibatide 20 μM, P<0.01
Method: (A to E) Freshly drawn human peripheral blood (4 ml) containing heparin (10 U/ml) was placed in polypropylene tubes (A) whereas human peripheral blood without anticoagulant was placed in silicone-coated tubes (B to E) and incubated at 37° C. for the time course of 0 to 24 hours (see Example 1, Materials and Methods). The samples were then subjected to snap-freezing for extraction and LC-MS/MS analysis. […] (B) Left: Combined concentrations of the total SPM cluster, prostaglandins, and thromboxanes after 24 hours of coagulation in the presence or absence of the αIIbβ3 inhibitor eptifibatide (Eptifib.; 20 μM). Middle: Clot volumes after 24 hours of coagulation of the indicated samples. Right: Representative clot images. Data are means±SEM of three individual donors.

[1] = system: clot-derived leukocytes and lymphocytes; experiment: Flow cytometric analysis of clots, cell viability (annexin V / PI); assay type: cell-based, human
Method: (§1) Human peripheral blood was collected from healthy individuals without anticoagulant and allowed to coagulate for 24 hours as described earlier. Clots were washed with phosphate-buffered saline (PBS) containing Ca2+ (0.9 mM) and Mg2+ (0.5 mM) and then gently homogenized and passed through a 70-micron filter. Clot-derived cells were stained for flow cytometric analysis. Cells were stained in FACS buffer (PBS with 1% BSA and 0.1% sodium azide). […] For viability assays, FITC-conjugated annexin V (BD) and propidium iodide (PI) were added to the cells according to the manufacturer's protocol. Samples were analyzed with a FACS Canto II flow cytometer (BD Bioscience) and FlowJo X Software.

[2] = as above; assay type: cell-based, human; details: human
Method: as §1

[3] = system: SPM production in human whole blood; experiment: SPM and eicosanoid production during coagulation with heparin, eptifibatide, ADA, celecoxib or BAI; assay type: cell-based
Method: FIG. 2 illustrates regulators of SPM formation in human blood. (A to E) Freshly drawn human peripheral blood (4 ml) containing heparin (10 U/ml) was placed in polypropylene tubes (A) whereas human peripheral blood without anticoagulant was placed in silicone-coated tubes (B to E) and incubated at 37° C. for the time course of 0 to 24 hours (see Example 1, Materials and Methods). The samples were then subjected to snap-freezing for extraction and LC-MS/MS analysis. (A) Concentrations of the members of the SPM cluster (identified in FIG. 1) in samples treated without (Coag.) or with heparin (10 U/ml) during the incubation period. Data are means±SEM of three individual donors. (B) Left: Combined concentrations of the total SPM cluster, prostaglandins, and thromboxanes after 24 hours of coagulation in the presence or absence of the αIIbβ3 inhibitor eptifibatide (Eptifib.; 20 μM). Middle: Clot volumes after 24 hours of coagulation of the indicated samples. Right: Representative clot images. Data are means±SEM of three individual donors. (C) Concentrations of total SPMs and of the indicated individual SPMs after 24 hours of coagulation in the presence or absence of 200 mU ADA. Data are means±SEM of three individual donors. *P<0.05, **P<0.01 by ratio t-test. (D) Top: LC-MS/MS measurements of adenosine concentrations in whole blood at the indicated time points during coagulation in the presence or absence of ADA. **P<0.01 when compared to the zero-hour time point. Bottom: Flow cytometric analysis of the percentage of neutrophil-platelet aggregates, which were defined as being double-positive for CD16 and CD42b, in whole blood allowed to coagulate for the indicated times in the absence (Coag.) or presence of ADA. Data are means±SEM of five individual donors. *P<0.05, **P <0.01 by student's t test. For dot plots and gating, see FIG. 7B. (E) MS/MS fragmentation profiles with diagnostic ions for the indicated SPMs identified in (C). (F) Left: PCA score plot. Red denotes +ADA for 1 hour; yellow, coagulation for 1 hour; green, coagulation for 24 hours; blue, +ADA for 24 hours. Right: PCA loading plot showing temporal clustering of the indicated mediators from three individual donors. Red denotes LM at 1 hour; blue denotes 24 hours with ADA).
FIG. 8 illustrates SPM formation in human blood clots being regulated by lipoxygenase activity. (A and B) Freshly drawn human peripheral blood (4 ml) was placed in silicone-coated tubes at 37° C. for 24 hours and coagulation was stopped by snap-freezing before LC-MS/MS analysis was performed. Concentrations of total SPMs, prostaglandins, and thromboxanes after 24 hours of coagulation (Coag.) in the presence or absence of (A) 100 μM indomethacin (Indo.) (n=six individual donors), (B) 500 nM celecoxib (CLX) or 20 μM BAI (n=three individual donors). […]

E. coli = experiment: Whole blood bacterial killing during coagulation; assay type: cell-based; details: BAI 200 μM, 24 h
Method: FIG. 10 illustrates the inhibitor of SPM formation BAI reduces bacterial killing. Freshly drawn human peripheral blood (4 mL) was placed in silicone-coated tubes at 37° C. for 24 h and was either stopped by snap freezing for LC-MS/MS, or supernatants were placed on LB agar plates and incubated overnight at 37° C. before enumeration of bacterial colonies. (A) Bacterial survival and (B) SPM in human peripheral blood (2.0 mL) incubated with E. coli (7×10^8 CFU) in the presence or absence of a LOX inhibitor (BAI) 200 μM for 24 h; 37° C. (n=4 individual donors). Data are means±SEM; *P<0.05, ****P<0.0001 for +BAI vs. Coag using ratio t-test.
Fresh human blood (2.0 ml) without anticoagulant was incubated with E. coli (˜7×108) in the presence or absence of 200 µM baicalein (a LOX inhibitor; Sigma) and allowed to coagulate at 37° C. for 24 hours. Serum from blood were diluted in PBS on ice and aliquots were placed on LB agar and incubated overnight in a 37° C. incubator. Colonies were enumerated.

[4] = system: prostaglandin, thromboxane and SPM production in human whole blood; experiment: LM metabololipidomics of human whole blood during coagulation in the presence of indomethacin; assay type: cell-based; details: 100 μM indomethacin
Method: FIG. 8 illustrates SPM formation in human blood clots being regulated by lipoxygenase activity. (A and B) Freshly drawn human peripheral blood (4 ml) was placed in silicone-coated tubes at 37° C. for 24 hours and coagulation was stopped by snap-freezing before LC-MS/MS analysis was performed. Concentrations of total SPMs, prostaglandins, and thromboxanes after 24 hours of coagulation (Coag.) in the presence or absence of (A) 100 μM indomethacin (Indo.) (n=six individual donors), (B) 500 nM celecoxib (CLX) or 20 μM BAI (n=three individual donors). Data are means±SEM; *P<0.05 for +BAI vs. Coag; ****P<0.0001 for +Indo vs. Coag. using ratio t-test.
Human whole blood was transferred in 4-ml aliquots to negatively charged, silicone-coated 10-ml tubes (BD) without anticoagulant. For experiments with heparin, the heparinized blood was placed in 15-ml polypropylene tubes before incubation at 37° C. For LM profiling at designated times, all samples were immediately subjected to a workup procedure by which whole blood was snap-frozen in a dry ice/isopropanol bath and were returned to room temperature (×3 cycles) before undergoing centrifugation at 100,000 g at 4° C. Supernatants (and clots for select experiments; see FIG. 6) were collected and were subjected to LC-MS/MS LM metabololipidomics. […]

[5] = ADA, P<0.01
Method: Human blood was subjected to the same freeze-thaw procedure as was used for the metabololipidomics. After centrifugation at 1000 g at 4° C. for 5 min, supernatants were reconstituted with 4 volumes of methanol and kept on ice for 30 min to facilitate protein precipitation. Samples were then subjected to centrifugation at 1000 g at 4° C. for 5 min. Supernatants were reconstituted to <1% methanol and then taken to LC-MS/MS for identification and quantitation of adenosine by matched retention time with ≥99%, pure adenosine (Sigma) through MRM transition 268>136 for the protonated adenine fragment (54).

[6] = system: neutrophil-platelet aggregates; experiment: Neutrophil-platelet interactions by flow cytometry; assay type: cell-based, human; details: with ADA
Method: Whole blood was collected from healthy individuals without anticoagulant and allowed to coagulate for 1, 6, or 24 h with or without ADA. Clots were washed with PBS and then gently homogenized and passed through a 70 micron-filter. Clot derived neutrophil-platelet interactions were analyzed by flow cytometry with FITC-conjugated anti-human CD16 antibody (clone ebio CB16), and PE-conjugated anti-human CD42b (clone HIP1). Neutrophils were identified by their cell surface expression of CD16 and high side and forward scatter. Platelets were identified based on their low side and forward scatter on a log scale and on their cell surface expression of CD42b. Neutrophil and platelet aggregates were identified as CD14-cells that were double-positive for CD42b and CD16 as CD14-,CD42b+,CD16+,SSChigh,FSChigh.

[7] = 24 h coagulation, n = 3, mean +/- S.E.M.

Which “increase in clot volume” value (human blood clot) does the source give for N=C(N)NCCCC[C@@H]1NC(=O)CCSSC[C@@H](C(N)=O)NC(=O)[C@@H]2CCCN2C(=O)[C@H](Cc2c[nH]c3ccccc23)NC(=O)[C@H](CC(=O)O)NC(=O)CNC1=O [Eptifibatide, eptifibatide, reference compound] ([Mpa][hArg]GDWPC-NH2; disulfide 1-7) here?
Its value is about 20%.

What about the Early apoptosis [1] of the same molecule?
Its Early apoptosis is 5.1 ± 1.9%.

What about the Late apoptosis [1] of the same molecule?
The Late apoptosis was 2.0 ± 0.5%.

What about the Necrotic [1] of the same molecule?
Its Necrotic is 0.9 ± 0.1%.

And the “cell viability (in words)” value [1]?
Its value is “without reducing cell viability”.

And the viability at 24 h [2]?
Its viability at 24 h is 90.6 ± 1.3%.

What about the “reduction of the total amount of the SPM cluster” value ([3]; eptifibatide 20 μM, 24 hours of coagulation, P<0.01) of the same molecule?
The value was about 50%.

For O=c1cc(-c2ccccc2)oc2cc(O)c(O)c(O)c12 [baicalein], which “increase in bacterial counts in the presence of the lipoxygenase inhibitor” value (E. coli; P<0.0001) is on record?
Its value is over 10 fold.

What about the “reduction in the abundances of members of the SPM cluster from coagulation” value (E. coli; with E. coli) of the same molecule?
Its value is over 80%.

And the “total amounts of SPMs” value ([3]; 20 μM BAI, 24 hours)?
Its value is “reduced the total amounts of SPMs”.

What does the source list for COc1ccc2c(c1)c(CC(=O)O)c(C)n2C(=O)c1ccc(Cl)cc1 [indomethacin]?
total SPM amounts compared to absence of inhibitor [4]: did not substantially change; inhibition at 100 µM ([4]; Homo sapiens, 24 hours vs. coagulation alone, read-out: inhibition of total prostaglandin and thromboxane production): > 99%

Which “reduction of SPMs in total in blood containing heparin” value ([3]; heparin 10 U/ml) does the source give for heparin here?
The value was 98%.

B1: adenosine deaminase (protein, UniProt P00813 2-363, looked up)
Adenosine deaminase: AQTPAFDKPKVELHVHLDGSIKPETILYYGRRRGIALPANTAEGLLNVIGMDKPLTLPDFLAKFDYYMPAIAGCREAIKRIAYEFVEMKAKEGVVYVEVRYSPHLLANSKVEPIPWNQAEGDLTPDEVVALVGQGLQEGERDFGVKARSILCCMRHQPNWSPKVVELCKKYQQQTVVAIDLAGDETIPGSSLLPGHVQAYQEAVKSGIHRTVHAGEVGSAEVVKEAVDILKTERLGHGYHTLEDQALYNRLRQENMHFEICPWSSYLTGAWKPDTEHAVIRLKNDQANYSLNTDDPLIFKSTLDTDYQMTKRDMGFTEEEFKRLNINAAKSSFLPEDEKRELLDLLYKAYGMPPSASAGQNL
notes: human recombinant adenosine deaminase, removes adenosine
With B1 as the molecule, how does the “time by which adenosine was cleared during coagulation” value [5] read?
Its value is at most 1 h.

And the “number of platelet-neutrophil aggregates during the time course of coagulation” value [6]?
Its value is “statistically significantly increased”.

What about the Early apoptosis [1, 7] of the same molecule?
Its Early apoptosis is 9.9 ± 2.9%.

What about the Late apoptosis [1, 7] of the same molecule?
Its Late apoptosis is 5.8 ± 1.4%.

What about the Live [1, 7] of the same molecule?
The Live was 81.5 ± 0.5%.

What about the Necrotic [1, 7] of the same molecule?
The Necrotic was 2.7 ± 2.0%.

What about the “cell viability (in words)” value ([1]; during coagulation) of the same molecule?
The value was “Cell viability was not decreased”.

What about the “total SPM production vs. coagulation alone” value ([3]; 200 mU ADA, 24 hours) of the same molecule?
Its value is “more than 8 times”.
